Test results as given in ChEMBL document CHEMBL1201862, “PubChem BioAssay data set” (2004).
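Growth conditions: 96-well plates. Treatment: test compound, 48 hours, 5 concentrations. Analysis: linear interpolation between bracketing concentrations; unreached endpoints set to highest concentration. Here, GI50 denotes the concentration required for 50% inhibition of growth.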 Calls of active or inactive are those of the source. Cut-off read from the data, not from the text of the source: active = GI50 up to about 1.1 µM and inactive = higher.

How the values were obtained:
Experiment in all cases: inhibition of tumour cell growth, NCI panel, 48 h
[1] = system: CCRF-CEM
[2] = system: A549
[3] = system: NCI-H522
[4] = system: TK-10
[5] = system: A498
[6] = system: SK-OV-3
[7] = system: KM-20L2
[8] = system: HOP-62
[9] = system: IGROV-1
[10] = system: SNB-19
[11] = system: HCC 2998
[12] = system: DLD-1
[13] = system: HT-29
[14] = system: SK-MEL-5
[15] = system: SK-MEL-2
[16] = system: HOP-92

Measured: GI50

Cn1c(=O)nc2n(-c3cccc(Br)c3)c3ccccc3nc-2c1=O
inactive: [1] 5.82 µM | [2] 2.92 µM | [3] 6.62 µM | [4] 11.3 µM | [5] 10.2 µM | [6] 21.3 µM | [7] 2.43 µM | [8] 14.8 µM | [9] 7.76 µM | [10] 1.38 µM | [11] 2.59 µM | [12] 5.41 µM | [13] 2.82 µM | [14] 1.75 µM | [15] 5.06 µM

CC(C)N/C(N)=N/C#N
inactive: [1] > 100 µM | [2] > 100 µM | [3] > 100 µM | [5] > 100 µM | [6] > 100 µM | [7] > 100 µM | [8] > 100 µM | [9] > 100 µM | [10] > 100 µM | [11] > 100 µM | [12] > 100 µM | [13] > 100 µM | [15] > 100 µM

O=Cc1ccc2c(c1-c1c(C=O)ccc3c1OCO3)OCO2
inactive: [1] 85.1 µM | [2] > 100 µM | [3] > 100 µM | [4] > 100 µM | [5] > 100 µM | [6] > 100 µM | [7] > 100 µM | [8] > 100 µM | [9] > 100 µM | [10] > 100 µM | [11] > 100 µM | [12] > 100 µM | [13] > 100 µM | [14] > 100 µM | [15] > 100 µM

N#CCCCCCOCCOCCOCCOCCOCCCCCC#N
inactive: [1] > 100 µM | [2] > 100 µM | [3] > 100 µM | [4] > 100 µM | [5] > 100 µM | [6] > 100 µM | [7] > 100 µM | [8] > 100 µM | [9] > 100 µM | [10] > 100 µM | [11] > 100 µM | [12] > 100 µM | [13] > 100 µM | [14] > 100 µM | [15] > 100 µM

CCN(CC)CCNc1ccc2nnn3c4ccc(OC)cc4c(=O)c1c23
inactive: [16] 6.07 µM | [1] 3.52 µM | [2] 5.56 µM | [3] 6.7 µM | [4] 9.25 µM | [5] 13.3 µM | [6] 10.2 µM | [7] 5.27 µM | [8] 11.1 µM | [9] 7.55 µM | [10] 11.4 µM | [12] 5.05 µM | [13] 3.74 µM | [14] 12.5 µM | [15] 14.2 µM

O=C1C2C(C(=O)N1O)N(Cc1ccccc1)C(=O)N2Cc1ccccc1 (configuration not stated)
inactive: [16] > 100 µM | [1] > 100 µM | [2] > 100 µM | [3] > 100 µM | [4] > 100 µM | [5] > 100 µM | [6] > 100 µM | [7] > 100 µM | [8] > 100 µM | [9] > 100 µM | [10] > 100 µM | [11] > 100 µM | [12] > 100 µM | [13] > 100 µM | [14] > 100 µM

CCCCCN(CCCCC)C(=O)[C@@H](CCC(=O)OCc1ccccc1)NC(=O)c1cc2ccccc2[nH]1
inactive: [16] > 100 µM | [1] > 100 µM | [2] > 100 µM | [3] > 100 µM | [5] > 100 µM | [6] > 100 µM | [7] > 100 µM | [8] > 100 µM | [9] > 100 µM | [10] > 100 µM | [11] > 100 µM | [12] > 100 µM | [13] > 100 µM | [15] > 100 µM
